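48-hour exposure; five concentrations; linearly interpolated endpoints. GI50 = concentration required for 50% inhibition of growth. At the TGI there is no net growth.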
Experiments:
Assay in all cases: DTP human tumour cell line panel, 48 h
786-0 renal = system: 786-0 renal
DU-145 prostate = system: DU-145 prostate
EKVX NSCLC = system: EKVX NSCLC
HCT-116 colon = system: HCT-116 colon
HL-60(TB) leukemia = system: HL-60(TB) leukemia
NCI-H23 lung = system: NCI-H23 lung
OVCAR-8 ovarian = system: OVCAR-8 ovarian
K-562 leukemia = system: K-562 leukemia
LOX IMVI melanoma = system: LOX IMVI melanoma
MOLT-4 leukemia = system: MOLT-4 leukemia

SMILES | GI50 (786-0 renal) | TGI (786-0 renal) | GI50 (DU-145 prostate) | TGI (DU-145 prostate) | GI50 (EKVX NSCLC) | TGI (EKVX NSCLC) | GI50 (HCT-116 colon) | TGI (HCT-116 colon) | GI50 (HL-60(TB) leukemia) | TGI (HL-60(TB) leukemia) | GI50 (NCI-H23 lung) | TGI (NCI-H23 lung) | GI50 (OVCAR-8 ovarian) | TGI (OVCAR-8 ovarian) | TGI (K-562 leukemia) | TGI (LOX IMVI melanoma) | TGI (MOLT-4 leukemia) | GI50 (K-562 leukemia) | GI50 (LOX IMVI melanoma) | GI50 (MOLT-4 leukemia)
COc1ccc2[nH]cc(-c3nc(-c4cn(C)c5ccncc45)cs3)c2c1 | 1.54 µM | 2.9 µM | 1.7 µM | 3.11 µM | 1.92 µM | 3.92 µM | 1.77 µM | 3.21 µM | 1.9 µM | 4.12 µM | 2.12 µM | 4.12 µM | 2.19 µM | 4.94 µM | – | – | – | – | – | –
COC(=O)c1ccccc1NC(=O)/C(=N\NC(C)(C)C)C(C#N)c1nc(-c2ccc([N+](=O)[O-])cc2)cs1 (centres undefined) | – | > 100 µM | – | > 100 µM | – | > 100 µM | – | > 100 µM | – | > 100 µM | – | > 100 µM | – | > 100 µM | > 100 µM | > 100 µM | > 100 µM | – | – | –
CCC[C@H](N[C@@H]1CCc2cc(F)cc(F)c2C1)C(=O)Nc1cn(C(C)(C)CNCC(C)(C)C)cn1 | 13.5 µM | 54.2 µM | 29.7 µM | > 100 µM | 21 µM | > 100 µM | 5.31 µM | 20.2 µM | 16.3 µM | 43.4 µM | 17.3 µM | > 89.9 µM | 27.5 µM | > 100 µM | > 89.2 µM | 30.6 µM | > 68.1 µM | 8.33 µM | 15.5 µM | 8.03 µM
CO[C@@H]1[C@@H](OC2OC(C)C(OC3CC(C)(O)C(OC(=O)CC(C)C)C(C)O3)C(N(C)C)C2O)[C@@H](CC=O)C[C@@H](C)C(=O)/C=C/C2O[C@H]2C[C@@H](C)OC(=O)C[C@H]1OC(C)=O (some centres undefined) | – | 50.2 µM | – | 28 µM | – | > 100 µM | – | 30.8 µM | – | 25 µM | – | 45.8 µM | – | > 100 µM | 39.8 µM | 30.4 µM | 27.7 µM | – | – | –
CC(C)(C)c1ccc([I+]c2ccc(C(C)(C)C)cc2)cc1 | 1.69 µM | 3.77 µM | 1.7 µM | 3.53 µM | 1.42 µM | 5.24 µM | 1.25 µM | 4 µM | 0.55 µM | 2.46 µM | 1.69 µM | 7.57 µM | 1.44 µM | 3.72 µM | 2.46 µM | 2.74 µM | 7.79 µM | 0.55 µM | 1.31 µM | 1.96 µM
O=C1c2ccccc2C(=O)N1c1ccc(S(=O)(=O)Nc2ncccn2)cc1 | > 100 µM | > 100 µM | > 100 µM | > 100 µM | > 100 µM | > 100 µM | > 100 µM | > 100 µM | > 100 µM | > 100 µM | > 100 µM | > 100 µM | > 100 µM | > 100 µM | > 100 µM | > 100 µM | > 100 µM | > 100 µM | > 100 µM | > 100 µM
CCCCCCCCCCCCCCCC(=O)OCC(O)C1OC(=O)C(O)=C1O (centres undefined) | – | 38.8 µM | – | > 100 µM | – | > 100 µM | – | 36.7 µM | – | 65.9 µM | – | 96.3 µM | – | – | 77.7 µM | 46.2 µM | > 100 µM | – | – | –
O=C1CCCC/C1=C/C=C/c1ccccc1 | – | > 100 µM | – | > 100 µM | – | – | – | > 100 µM | – | 62.8 µM | – | > 100 µM | – | > 100 µM | > 100 µM | > 100 µM | > 100 µM | – | – | –
[Cu+2].[O-]c1ccc2ccccc2c1N=Nc1ccccc1.[O-]c1ccc2ccccc2c1N=Nc1ccccc1 | 72.7 µM | > 100 µM | – | > 100 µM | > 100 µM | > 100 µM | – | > 100 µM | – | > 100 µM | – | > 100 µM | – | > 100 µM | > 100 µM | – | > 100 µM | – | – | –
COC(CCP(=O)(c1ccccc1)c1ccccc1)(C(=O)c1ccccc1)c1ccccc1 (centres undefined) | 10.3 µM | 28 µM | 12 µM | 24.3 µM | 4.37 µM | 16.9 µM | 4.48 µM | 16.5 µM | 2.29 µM | > 100 µM | 4.5 µM | 17.8 µM | 7.95 µM | 27.8 µM | – | 19.6 µM | > 100 µM | – | 5.12 µM | 2.06 µM
CN1CCN(c2ccc3c4c(cccc24)C(=O)N(CCN2CCN(CCCN4CCN(CCN5C(=O)c6cccc7c(N8CCN(C)CC8)ccc(c67)C5=O)CC4)CC2)C3=O)CC1 | 1.79 µM | 6.87 µM | 7.19 µM | 17 µM | 8.16 µM | 17.3 µM | 1.23 µM | 5.79 µM | 1.49 µM | 7.15 µM | 7.08 µM | 13.8 µM | 2.99 µM | 10.7 µM | – | 11.6 µM | – | – | 4.56 µM | –
COc1ccc(O)c(C(=O)c2ccc(C(=O)O[C@@H]3CCCNC[C@H]3NC(=O)c3ccncc3)cc2)c1F | 0.403 µM | > 25 µM | 1.47 µM | > 25 µM | – | – | 1.04 µM | > 25 µM | 0.753 µM | 2.34 µM | 1.91 µM | > 25 µM | 1.04 µM | > 25 µM | > 25 µM | > 25 µM | > 5.54 µM | 0.723 µM | 1.19 µM | 0.456 µM
CCN(CC)CCOc1ccc(/C=C2\CC3C4CCC5=CC(=O)CC[C@]5(C)C4CC[C@]3(C)C2=O)cc1OC (some centres undefined) | 2.18 µM | 4.61 µM | 3.26 µM | 16.4 µM | 4.88 µM | 19.5 µM | 1.85 µM | 4.45 µM | – | – | 3.17 µM | 11 µM | 4.09 µM | 18.2 µM | > 100 µM | 4.43 µM | > 100 µM | 3.14 µM | 1.89 µM | 5.78 µM
COc1ccc2c(c1)c(C1(c3cn(C)c4ccc(OC)cc34)C(=O)Nc3ccc(F)cc31)cn2C | 6.51 µM | > 100 µM | 11.5 µM | > 100 µM | 3.05 µM | > 100 µM | 3.84 µM | 15.3 µM | – | – | 6.06 µM | > 100 µM | 4.28 µM | > 100 µM | > 100 µM | > 100 µM | 50.1 µM | 4.61 µM | 4.45 µM | 4.57 µM
N#Cc1ccccc1C#C/C=C\C#Cc1ccc(OCCCNC(=O)c2cc3ccccc3[nH]2)cc1 | 16.1 µM | 40.5 µM | 19.4 µM | 78.9 µM | 17.1 µM | 96.6 µM | 14.8 µM | 39.6 µM | – | – | 24.2 µM | 98.2 µM | 16.2 µM | 36.9 µM | 19 µM | 23.7 µM | 23.4 µM | 3.2 µM | 11.5 µM | 5.23 µM
